pEC50, pIC50: −log10 of the molar value.

For assay [1], the system named is HL-60. The assay is described as follows: Anti-proliferative effect. Type of assay: cell-based. Conditions: Homo sapiens, HL-60, read-out: GI50 HL-60.
Assay [2] relates to MV4-11. As to the kind of experiment: Cell cycle analysis. Type of assay: cell-based. The following applies: MV4-11, 48 h treatment.
Assay [3] deals with T1, PI3Kδ (Homo sapiens, UniProt O00329). The assay is described as follows: Kinase kinetic assay with varied ATP. It counts as biochemical. Also on record: purchased Invitrogen. The following applies: varied ATP concentrations. The protocol:
(§1) Kinetic analyses of PI3Kδ and Vps34 were performed using a luminometric kinase assay varying the concentration of ATP using the ADP-Glo reagents (Promega). […] After 60 min incubation at RT, varied concentrations of ATP and 0.1 mM substrate (PIP2:PS for PI3Kδ, PI:PS for Vps34) were added and incubated for 60 min at 37° C. The overall rate of reaction was determined as the slope of the decreasing phase of the reaction. Each data point was collected in duplicate and kinetic parameters were obtained using Prism 5.0 (GraphPad Software, San Diego, CA).

Assay [4] concerns MV4-11. The assay is described as follows: Induction of apoptosis (PARP cleavage). Type of assay: cell-based.
In assay [5] the target is T2, VPS34 (Homo sapiens, UniProt Q8NEB9).
T2 construct: purchased Invitrogen
T2 sequence (Q8NEB9 whole entry): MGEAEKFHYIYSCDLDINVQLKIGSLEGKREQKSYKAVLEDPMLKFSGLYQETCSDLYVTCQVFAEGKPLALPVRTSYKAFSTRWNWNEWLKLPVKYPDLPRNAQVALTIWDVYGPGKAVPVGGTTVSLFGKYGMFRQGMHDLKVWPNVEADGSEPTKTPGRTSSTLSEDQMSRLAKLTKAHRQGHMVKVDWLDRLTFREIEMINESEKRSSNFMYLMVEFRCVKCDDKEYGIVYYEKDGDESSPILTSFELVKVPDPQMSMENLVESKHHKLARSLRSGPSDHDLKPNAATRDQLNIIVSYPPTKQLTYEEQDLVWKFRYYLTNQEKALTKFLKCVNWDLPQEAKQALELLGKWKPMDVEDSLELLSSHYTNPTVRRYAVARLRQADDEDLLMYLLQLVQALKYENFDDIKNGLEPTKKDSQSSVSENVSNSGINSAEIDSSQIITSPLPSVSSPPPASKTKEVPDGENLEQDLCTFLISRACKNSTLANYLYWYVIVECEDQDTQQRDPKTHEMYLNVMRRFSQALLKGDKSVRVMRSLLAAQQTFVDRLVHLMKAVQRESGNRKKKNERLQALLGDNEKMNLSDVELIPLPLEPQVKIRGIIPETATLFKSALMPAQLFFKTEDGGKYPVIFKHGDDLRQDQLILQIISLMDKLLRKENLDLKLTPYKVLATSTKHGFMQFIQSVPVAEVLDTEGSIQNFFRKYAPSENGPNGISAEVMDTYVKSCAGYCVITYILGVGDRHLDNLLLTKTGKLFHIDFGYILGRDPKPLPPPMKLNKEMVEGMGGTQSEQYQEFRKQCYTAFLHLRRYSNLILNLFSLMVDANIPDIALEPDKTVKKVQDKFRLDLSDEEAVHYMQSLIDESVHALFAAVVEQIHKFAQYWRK
As to the kind of experiment: ADP-Glo biochemical assay. The following applies: purified protein, 50 μM ATP, read-out: IC50 against VPS34. On the technique in general: ADP-Glo turns the ADP formed in a reaction into a luminescent signal.
Description: (§2) The activities of PI3Kα, PI3Kβ, PI3Kδ, PI3Kγ, PI3KC2α, PI3KC2β, Vps34, PI4Kα and PI4Kβ were determined by using ADP-Glo assay, a fluorescence-based immunoassay that measures kinase activity in terms of the amount of ADP produced. A kinase titration was performed to determine the concentration. The amount of recombinant kinases was optimized to keep the reaction velocity within the linear range, to obtain an adequate difference between the resulting signals of sample in/out the presence of enzyme. The optimized enzyme concentrations for evaluating the inhibitory activities of compounds were chosen as follows: 0.16 μg/ml, 6.0 μg/ml, 1.0 μg/ml, 5.0 μg/ml, 5.0 μg/ml, 10.0 μg/ml, 1.2 μg/ml, 1.2 μg/ml and 1.0 μg/ml for PI3Kα, PI3Kβ, PI3Kδ, PI3Kγ, PI3KC2α, PI3KC2β, Vps34, PI4Kα and PI4Kβ, respectively. The ATP concentration was optimized, 10 μM ATP for PI3Kα and PI3Kβ, and 50 μM ATP for detection of the other seven kinases. The PI3Kα, PI3Kβ, PI3Kδ, PI3Kγ, PI3KC2α, PI3KC2β kinase reactions were carried out in 10 μl volume in a 384-well plate in the kinase reaction buffer containing 50 mM Hepes pH 7.5, 3 mM MgCl2, 1 mM EGTA, 1 mM NaCl, 0.03% CHAPS and 2 mM DTT. […] 10 μl kinase detection reagent was dded and incubated for 30 min at room temperature, before the luminescence signal was read with an envision PerkinElmer plate reader.

Assay [6] relates to OCI-AML-2. The assay is described as follows: Cell cycle analysis. Conditions: OCI-AML-2, 48 h treatment. Type of assay: cell-based.
The target in assay [7] is T1, PI3Kδ. As to the kind of experiment: biochemical.
Description: as §2
In assay [8] the target is T3, PI3Kγ (Homo sapiens, UniProt P48736).
T3 construct: purchased Invitrogen
As to the kind of experiment: ADP-Glo biochemical assay. The following applies: purified protein, 50 μM ATP, read-out: IC50 against PI3Kγ (PIK3CG).

Assay [9] deals with OCI-AML-2. As to the kind of experiment: Anti-proliferative effect. Type of assay: cell-based. Conditions: Homo sapiens, OCI-AML2, read-out: GI50 OCI-AML-2.
For assay [10], the system named is MEC-2. As to the kind of experiment: Cell cycle analysis. It counts as cell-based. Conditions: MEC-2, 48 h treatment.
Assay [11] has as its target T4, PI3Kβ (Homo sapiens, UniProt P42338).
T4 construct: purchased Sigma
As to the kind of experiment: ADP-Glo biochemical assay. Conditions: purified protein, 10 μM ATP, read-out: IC50 against PI3Kβ (PIK3CB).

Assay [12] deals with MEC-1. As to the kind of experiment: Anti-proliferative effect. Type of assay: cell-based. The following applies: Homo sapiens, MEC1; CLL.
For assay [13], the system named is OCI-AML-3. The assay is described as follows: Autophagy markers LC3BII and p62 (immunoblotting). It counts as cell-based. Background: Immunoblotting shows a protein as a band on a membrane.
Assay [14] deals with pERK in MEC-2 cells. The assay is described as follows: pERK immunoblotting. Type of assay: cell-based. An excerpt: The following antibodies were purchased from Cell Signaling Technology: Akt(#4691), Phospho-Akt(Thr308)(#4056), Phospho-Akt(Ser473)(#4060), GAPDH, GSK-3β(#9315), Phospho-GSK-3β(#9323), FoxO1(#2880), Phospho-FoxO1 (Thr24)/FoxO3a(Thr32)/FoxO4(Thr28)(#2599), PRAS40(#2691), Phospho-PRAS40 (Thr246)(#2997), 4E-BP1(#9644), p70 S6K(#2708), Phospho-p70 S6K (Thr389)(#9234). SQSTM1/p62 (D5E2)(#8025), LC3B(#12513). PARP(#9532), Caspase-3(#9665), Phospho-p44/42 MAPK (Erk1/2) (Thr202/Tyr204)(#4377), p44/42 MAPK (Erk1/2) (#4695), Phospho-NF-ΚB P65 (Ser 536)(#3033), NF-ΚB P65(#4764). Lysophosphatidic Acid (#sc-201053, Santa Cruz), Recombinant Human PDGF-BB (#220-BB, R&D), Recombinant Human C5a (Peprotech, #300-70), goat anti-IgM (#5C07615, Meridian). LC3B antibody (#3868, CST). Tubulin antibody (#8035, Santa Cruz). EEA1 antibody (#610456, BD Bioscience) and LAMP1 antibody (#24170, Abcam). Secondary antibodies, Alexa488-anti-mouse, Alexa594-anti-rabbit and Prolong gold mounting medium with DAPI were purchased from Invitrogen.

Assay [15] deals with Hs 505T. As to the kind of experiment: Anti-proliferative effect. It counts as cell-based. Conditions: Homo sapiens, read-out: GI50 Hs 505T.
In assay [16] the test system is Namalwa. As to the kind of experiment: Anti-proliferative effect. Type of assay: cell-based. Conditions: read-out: GI50 Namalwa.
In assay [17] the test system is CMK. As to the kind of experiment: Anti-proliferative effect. It counts as cell-based. The following applies: Homo sapiens, read-out: GI50 CMK.
The target in assay [18] is T5, PIK3C2A (Homo sapiens, UniProt O00443).
T5 construct: purchased Invitrogen
T5 sequence (O00443 whole entry): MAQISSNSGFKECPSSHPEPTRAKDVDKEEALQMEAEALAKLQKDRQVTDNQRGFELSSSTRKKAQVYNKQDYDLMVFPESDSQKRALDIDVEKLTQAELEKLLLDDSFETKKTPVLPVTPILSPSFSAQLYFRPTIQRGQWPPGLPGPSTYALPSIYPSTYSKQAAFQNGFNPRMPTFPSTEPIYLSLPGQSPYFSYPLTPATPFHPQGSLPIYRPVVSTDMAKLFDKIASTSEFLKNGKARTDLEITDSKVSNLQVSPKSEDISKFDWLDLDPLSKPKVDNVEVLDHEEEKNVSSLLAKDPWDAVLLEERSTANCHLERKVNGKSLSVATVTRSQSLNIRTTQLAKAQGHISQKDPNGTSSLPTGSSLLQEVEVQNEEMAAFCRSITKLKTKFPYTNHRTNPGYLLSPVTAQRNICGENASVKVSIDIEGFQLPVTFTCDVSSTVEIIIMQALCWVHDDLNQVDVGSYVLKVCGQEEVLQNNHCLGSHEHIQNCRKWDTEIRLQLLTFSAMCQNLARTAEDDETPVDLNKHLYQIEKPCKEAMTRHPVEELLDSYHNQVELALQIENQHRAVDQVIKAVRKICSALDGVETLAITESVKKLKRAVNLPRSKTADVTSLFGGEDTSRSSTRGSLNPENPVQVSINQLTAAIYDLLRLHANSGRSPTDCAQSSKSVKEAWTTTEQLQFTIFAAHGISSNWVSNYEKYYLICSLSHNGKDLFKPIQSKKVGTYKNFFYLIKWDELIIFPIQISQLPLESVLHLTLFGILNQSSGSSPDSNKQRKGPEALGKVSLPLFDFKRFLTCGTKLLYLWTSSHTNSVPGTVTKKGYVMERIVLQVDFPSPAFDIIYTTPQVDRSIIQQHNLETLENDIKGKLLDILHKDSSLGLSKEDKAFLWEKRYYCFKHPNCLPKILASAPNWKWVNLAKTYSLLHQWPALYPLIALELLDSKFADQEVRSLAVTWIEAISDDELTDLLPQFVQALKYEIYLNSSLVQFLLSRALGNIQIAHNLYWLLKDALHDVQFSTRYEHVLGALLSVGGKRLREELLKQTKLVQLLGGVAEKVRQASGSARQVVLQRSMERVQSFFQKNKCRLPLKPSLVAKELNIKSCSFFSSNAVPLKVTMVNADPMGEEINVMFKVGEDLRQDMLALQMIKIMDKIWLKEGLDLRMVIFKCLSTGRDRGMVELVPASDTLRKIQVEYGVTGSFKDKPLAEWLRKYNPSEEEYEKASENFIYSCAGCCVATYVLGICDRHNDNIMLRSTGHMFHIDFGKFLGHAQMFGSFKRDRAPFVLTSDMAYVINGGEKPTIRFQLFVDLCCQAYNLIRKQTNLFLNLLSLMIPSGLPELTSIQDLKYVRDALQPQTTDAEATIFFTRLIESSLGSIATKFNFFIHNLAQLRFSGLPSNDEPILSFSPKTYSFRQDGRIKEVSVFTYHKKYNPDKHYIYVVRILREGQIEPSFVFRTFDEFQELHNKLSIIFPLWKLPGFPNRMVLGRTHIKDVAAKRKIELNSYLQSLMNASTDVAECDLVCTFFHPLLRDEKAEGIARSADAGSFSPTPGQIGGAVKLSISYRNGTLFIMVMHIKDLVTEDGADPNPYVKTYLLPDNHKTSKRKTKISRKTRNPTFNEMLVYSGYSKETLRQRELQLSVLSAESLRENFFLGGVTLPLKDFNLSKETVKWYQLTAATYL
The assay is described as follows: ADP-Glo biochemical assay. Conditions: 50 μM ATP, read-out: IC50 against PIK3C2A.

The target in assay [19] is T6, PI3Kβ (Mus musculus, UniProt Q8BTI9).
T6 construct: endogenous in cells; host or cells: NIH-3T3
The assay is described as follows: PI3K isoforms cellular selectivity assay (AKT phosphorylation, NIH-3T3, LPA). It counts as cell-based. Conditions: NIH-3T3 cells, LPA stimulation. The procedure: Cells were lysed and AKT phosphorylation was determined by Western Blotting. Intensity of the bands was determined using ImageJ 1.42q (NIH, USA) and normalized to total AKT (loading control).

Assay [20] deals with OCI-AML-2. As to the kind of experiment: Induction of apoptosis (PARP cleavage). It counts as cell-based. The following applies: OCI-AML-2, evident at 3 μM to 10 μM.
Assay [21] relates to MEC-2. As to the kind of experiment: Autophagy markers LC3BII and p62 (immunoblotting). Type of assay: cell-based.
The target in assay [22] is T2, VPS34. As to the kind of experiment: Kinase kinetic assay with varied ATP. It counts as biochemical. Conditions: varied ATP concentrations. The procedure:
as §1

Assay [23] concerns FLT3-ITD positive primary AML cells. The assay is described as follows: Growth of AML primagraft cells ex vivo. It counts as cell-based. Conditions: 72 hours. The protocol:
Mononuclear cells were isolated from AML patients. Mononuclear cells were isolated by density gradient centrifugation through Ficoll-Plaque Plus (Amersham Pharmacia Biotech AB, Uppsala, Sweden) at 2000 rpm for 30 minutes, followed by two washes in 1X PBS. Freeze-thawed cells were then cultured in liquid culture (DMEM, supplemented with 20% FBS). All blood and bone marrow samples from AML patients were obtained through written consent under approval of the Dana Farber Cancer Institute Institutional Review Board. The ethics committees approved the consent procedure.

Assay [24] has as its system OCI-AML-2. As to the kind of experiment: Autophagy markers LC3BII and p62 (immunoblotting). Type of assay: cell-based.

T1 sequence (O00329 whole entry): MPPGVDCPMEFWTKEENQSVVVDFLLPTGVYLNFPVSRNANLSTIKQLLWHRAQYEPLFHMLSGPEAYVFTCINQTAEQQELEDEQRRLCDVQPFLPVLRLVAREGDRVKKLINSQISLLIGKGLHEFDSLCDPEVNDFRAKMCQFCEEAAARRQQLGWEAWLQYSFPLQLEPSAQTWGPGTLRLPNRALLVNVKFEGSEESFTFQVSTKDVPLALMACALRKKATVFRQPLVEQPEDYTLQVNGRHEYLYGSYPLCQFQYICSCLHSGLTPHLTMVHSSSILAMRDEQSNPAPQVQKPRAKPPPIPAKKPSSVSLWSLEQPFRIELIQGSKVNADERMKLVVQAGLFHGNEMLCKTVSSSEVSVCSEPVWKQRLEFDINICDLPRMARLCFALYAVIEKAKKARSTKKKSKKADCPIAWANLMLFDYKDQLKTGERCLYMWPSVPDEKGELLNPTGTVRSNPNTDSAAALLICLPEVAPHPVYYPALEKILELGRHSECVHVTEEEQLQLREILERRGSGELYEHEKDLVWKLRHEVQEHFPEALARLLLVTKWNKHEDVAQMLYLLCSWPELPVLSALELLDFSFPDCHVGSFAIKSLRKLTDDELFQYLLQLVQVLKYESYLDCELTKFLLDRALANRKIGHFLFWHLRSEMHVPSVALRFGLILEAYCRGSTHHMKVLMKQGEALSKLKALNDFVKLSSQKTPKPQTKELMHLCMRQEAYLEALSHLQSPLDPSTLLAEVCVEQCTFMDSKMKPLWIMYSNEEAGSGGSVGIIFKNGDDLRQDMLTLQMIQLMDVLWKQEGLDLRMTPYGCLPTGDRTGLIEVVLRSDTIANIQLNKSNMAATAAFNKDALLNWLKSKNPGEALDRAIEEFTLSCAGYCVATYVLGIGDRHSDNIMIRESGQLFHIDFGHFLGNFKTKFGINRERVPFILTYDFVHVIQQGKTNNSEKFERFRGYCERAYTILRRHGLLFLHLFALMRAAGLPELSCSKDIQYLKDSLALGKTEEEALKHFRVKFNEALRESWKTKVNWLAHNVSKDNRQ
T1 sequence (P27986 whole entry partner): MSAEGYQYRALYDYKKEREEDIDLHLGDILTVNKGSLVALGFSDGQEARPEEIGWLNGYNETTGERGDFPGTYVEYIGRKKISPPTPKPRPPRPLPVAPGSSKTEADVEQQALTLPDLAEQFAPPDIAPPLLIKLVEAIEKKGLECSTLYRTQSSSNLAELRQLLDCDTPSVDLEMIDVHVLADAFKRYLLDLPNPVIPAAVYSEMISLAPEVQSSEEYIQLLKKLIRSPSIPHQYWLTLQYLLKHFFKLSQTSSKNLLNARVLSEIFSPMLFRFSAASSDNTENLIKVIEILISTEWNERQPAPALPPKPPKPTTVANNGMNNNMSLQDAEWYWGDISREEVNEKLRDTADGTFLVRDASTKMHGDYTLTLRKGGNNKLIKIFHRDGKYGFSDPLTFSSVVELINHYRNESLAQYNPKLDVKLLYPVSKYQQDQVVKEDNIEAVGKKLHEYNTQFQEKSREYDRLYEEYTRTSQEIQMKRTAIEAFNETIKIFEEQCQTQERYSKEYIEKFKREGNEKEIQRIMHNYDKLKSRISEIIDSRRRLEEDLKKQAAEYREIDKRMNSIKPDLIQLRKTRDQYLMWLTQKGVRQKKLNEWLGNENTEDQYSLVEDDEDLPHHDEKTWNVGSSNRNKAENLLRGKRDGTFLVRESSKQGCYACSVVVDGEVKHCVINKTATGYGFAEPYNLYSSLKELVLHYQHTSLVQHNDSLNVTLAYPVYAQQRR

A word on the GI50: it is the concentration that inhibits growth by half. As a reminder, the pIC50 is −log10 of the IC50, conventionally taken in molar units. By pEC50 is commonly meant the negative decadic logarithm of the EC50, by convention in mol/L. High values mean a small EC50, low ones a large EC50. What is called inhibition is how much of the control response was suppressed. Regarding `Cc1nc(NC(=O)CN)sc1-c1cnc(Cl)c(NS(=O)(=O)c2ccc(C(C)(C)C)cc2)c1` [PI3KD/V-IN-01, 2-amino-N-(5-(5-(4-tert-butylphenylsulfonamido)-6-chloropyridin-3-yl)-4-methylthiazol-2-yl)acetamide], the GI50 in assay [1] was 2.7 µM; in assay [9], 1 µM; in [12], above 10 µM; in [15], above 10 µM; in assay [16], 1.3 µM; in [17], 2 µM. Further, the cell cycle progression result in [2] is “arrested in the G0/G1 phase”; in assay [6], “no apparent cell cycle inhibition”; in [10] it was “arrested in the G0/G1 phase”. Also, the “Mode of inhibition against PI3Kδ” value in assay [3] is on record as “ATP competitive inhibitor”. Also, the induction of apoptosis result in [4] was “apparent PARP cleavage observed”; in [20] it was “only a modest induction of apoptosis”. Moreover, the pIC50 in assay [5] was 7.72; in [7], 8.22; in assay [8] it was 6.92; in assay [11], 6.95; in assay [18], below 5.00. For the same compound, the “levels of the autophagy markers, LC3BII and p62” value in [13], in [21] and in assay [24] was “concentration-dependent increase” throughout. Besides, the “effect on pERK” value in assay [14] is “significantly inhibited”. The negative logarithm of the EC50 (pEC50) in [19] was below 5.52. Besides, the “Mode of inhibition against Vps34” value in assay [22] is on record as “ATP competitive inhibitor”. This compound returned an inhibition at 1 µM in assay [23] above 85%.

Source of the values: article PMC5288202, “Simultaneous inhibition of Vps34 kinase would enhance PI3Kδ inhibitor cytotoxicity in the B-cell malignancies” (Oncotarget, 2016).
